These results are taken from patent US20140178305A1, “IDENTIFICATION AND USE OF ANXIOLYTIC COMPOUNDS” (CALIFORNIA INSTITUTE OF TECHNOLOGY, priority 2012, published 2014).

The subject of one test is MRGPRB4+ fibres. The test is described as follows: Two-photon in vivo calcium imaging (GCaMP3.0) of central afferent fibres through a spinal cord laminectomy, chemical stimuli. Details: species or system mouse. Conditions: CNO, mice injected only with GCaMP3.0 viruses (no hM3DREADD). As for the experimental part: Mice expressing reporters and/or Cre recombinase targeted to the MrgprB4 locus were generated by homologous recombination in embryonic stem cells, according to standard procedures. Heterozygous neonates from MrgprD-Cre and MrgprB4-Cre mice were injected intraperitoneally with Cre-dependent AAV8 viruses expressing GCaMP3.0 or mGCaMP3.0 or hM3(Gq-coupled) DREADD, and imaged as adults (≧8 weeks old).
Electrophysiology experiments on ex vivo skin-nerve preparations from adult heterozygous Mrgprb4-EGFPf reporter mice were performed as described in Woodbury, et al. J. Comp. Neurol. 436, 304-323 (2001). For calcium imaging, after a dorsal laminectomy the spinal column was stabilized and filled with imaging solution (see below for details). Imaging was performed using a two-photon laser-scanning microscope (Ultima, Prairie Inc.) using an Olympus 40×0.8 N.A. water immersion objective, at 128×128 pixel resolution with an acquisition rate of 8-12 frames per second. Mechanical stimuli were delivered using a custom-modified No. 5 sable paint brush or serrated forceps, in a manner electronically time-stamped to image acquisition, as may be seen in FIGS. 18A-18C and further discussed below. Stimuli were delivered to each mouse in a series of trials, separated by a few minutes; each trial consisted of one or more stimuli delivered typically at intervals of several seconds. Chemical stimuli were delivered to the spinal cord using a Pipetman pipette and to the periphery using a syringe pump. Calcium responses were analysed using custom software written in Matlab (see below for more details). For calculating ΔF/F [(Fav−F0)/F0], F0 is the average of the first ten frames of the recording period.
Mice 2 months or older were sedated by i.p. injection of a mix of ketamine (100 mg/kg), xylazine (15 mg/kg), acepromazine (2.5 mg/kg in 0.9% NaCl). During surgery, body temperature was maintained at 37° C. with a heating blanket.
A dorsal laminectomy was performed mostly at spinal level L2-L4 (but occasionally at L1-L3) as described in Johannssen, et al. J. Physiol. (Lond.) 588:3397-3402 (2010), but without removing the dura. The spinal column was stabilized using Narishige STS-A spinal clamps. In addition a head-holding adaptor from Kopf (923-B Mouse Gas Anaesthesia Head Holder) was used that has installed an anaesthesia/gas mask for positioning the mouse head. In this apparatus the gas is applied through a standard hose barb positioned above the nose on the mask. The inlet fills a large gas chamber around the snout, a second hose barb below the mask is provided for vacuuming off excess, expelled gasses. The animals were maintained under continuous anaesthesia for the duration of the imaging experiments with 1-2% isofluorane or with hourly injections of the above ketamine mix. A well was built around the exposed spinal cord using Gelseal (Amersham Biosciences Corp) and Kwik Sil Adhesive (WPI). Warm imaging solution (in mM: 130 NaCl, 3 KCl, 2.5 CaCl2, 0.6 6H2O.MgCl2, 10 HEPES without Na, 1.2 NaHCO3, 10 glucose, pH7.45 with NaOH) (37° C.) was repeatedly applied to prevent drying and maintain tissue integrity, and to allow the use of immersion objectives. During imaging the body temperature of the animals was maintained at 37° C. with a heating blanket and an air-therm heater (WPI) placed inside the microscope area.
Imaging experiments were performed under a two-photon laser-scanning microscope (Ultima, Prairie Instruments Inc.). Live images were acquired at 8-12 frames per second, at depths below the pia ranging from 100 to 250 μm, using an Olympus 40×0.8 N.A. water immersion objective, at 128×128 pixel resolution with a laser tuned to 940 nm wavelength, and emission filters 525/50 nm and 595/50 nm for green and red fluorescence, respectively. Laser power was adjusted to be 20-25 mW at the focal plane (maximally 35 mW), depending on the imaging depth and level of expression of GCaMP3.0. […]

For test [1], the system named is MRGPRD+ neurons (hM3DREADD). Put plainly: Conditioned place aversion (CPA) assay with CNO. The class given is in vivo, mouse. The settings on record: CNO and DREADD, separate experiments, data not shown. An excerpt:
Because our hypothesis is based on the social reward mediated by social contact in juvenile mice, the mice used were approximately 1-month old. After weaning the mice were maintained in social groups and left undisturbed until the start of the CPP assay. The paradigm was completed in 6 days. On the day before pre-testing the mice were socially isolated in their home cage. On day 1 of the procedure each mouse was placed in the central compartment and allowed to explore the entire apparatus freely for 30 min (pre-test). After the pre-test the initial preference of each mouse for a given side compartment was recorded. […] Conditioning was initiated on day 2 and encompassed four sessions performed on four consecutive days. In the first conditioning session mice were injected i.p. with CNO (5 mg kg) (or saline of an equivalent volume for some control mice) and placed for 1 h (based on the observation that CNO effects peak between 45 and 50 min after administration) in the initially non-preferred (I.N.P.) compartment. On day 3, during the second conditioning session, all mice were injected with saline and confined for 1 hr in the opposite (that is, initially preferred, I.P.) compartment. (The second conditioning session was performed the following day as CNO effects last for 9 hrs.) On day 4 and day 5 the first and second conditioning sessions were repeated, respectively. […]

On to `C[N+]1([O-])CCN(C2=Nc3cc(Cl)ccc3Nc3ccccc32)CC1` [CNO, Clozapine-N-oxide], for which the “calcium transients after application to the spinal cord” value with MRGPRB4+ fibres was “no CNO responses”. For the same compound, in test [1], the “conditioned place aversion (CPA)” value is reported as “nor (in separate experiments) conditioned place aversion”.
